ChEMBL document CHEMBL1201862, “PubChem BioAssay data set” (2004)
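Test compounds were applied to cells in 96-well plates for 48 hours at 5 doses. Here, GI50 denotes the concentration required for 50% inhibition of growth.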 Active and inactive are the calls of the source. Cut-off read from the data, not from the text of the source: active = GI50 up to about 1.1 µM and inactive = higher.

Key:
Experiment in all cases: growth of human tumour cells (NCI), 48 h
OVCAR-8 = system: OVCAR-8
A549 = system: A549
DMS-114 = system: DMS-114
ACHN = system: ACHN
KM12 = system: KM12
DMS-273 = system: DMS-273
SR = system: SR
NCI/ADR-RES = system: NCI/ADR-RES
RPMI-8226 = system: RPMI-8226
T47D = system: T47D
SF-539 = system: SF-539
HL-60 = system: HL-60
M14 = system: M14
NCI-H23 = system: NCI-H23
HCT-116 = system: HCT-116
SK-MEL-28 = system: SK-MEL-28
K562 = system: K562
TK-10 = system: TK-10
SK-MEL-5 = system: SK-MEL-5
SNB-78 = system: SNB-78

Measured: GI50

N#Cc1c(-c2ccc(Cl)cc2)c(-c2ccc(Cl)cc2)nn(CCOC(=O)CCC(=O)O)c1=O
active: OVCAR-8 1.02 µM | DMS-114 0.931 µM | KM12 0.245 µM | SR 0.291 µM | RPMI-8226 0.76 µM | SF-539 0.421 µM | HL-60 0.339 µM | M14 0.399 µM | HCT-116 0.6 µM | K562 0.344 µM | SK-MEL-5 0.166 µM
inactive: A549 1.31 µM | ACHN 1.45 µM | DMS-273 2.08 µM | NCI/ADR-RES 1.32 µM | T47D > 32.3 µM | NCI-H23 2.16 µM | SK-MEL-28 5.47 µM | TK-10 4.11 µM

O=C1OC(=O)C2C1C1C(c3ccccc3)=C(c3ccccc3)C2(O)C2C(=O)OC(=O)C12 (stereo not given)
inactive: OVCAR-8 63.8 µM | A549 > 100 µM | DMS-114 28.6 µM | ACHN > 100 µM | KM12 > 100 µM | SR 78.5 µM | RPMI-8226 38.6 µM | HL-60 > 10 µM | SNB-78 97.7 µM | M14 > 100 µM | NCI-H23 65.3 µM | HCT-116 54.8 µM | SK-MEL-28 98.4 µM | K562 45.1 µM | TK-10 > 100 µM

Cc1cc2c(cc1C)[n+]([O-])c(C(=O)CC(=O)C(=O)Nc1ccccc1C)c(C)[n+]2[O-]
inactive: OVCAR-8 > 100 µM | A549 56.2 µM | ACHN > 100 µM | KM12 > 100 µM | DMS-273 > 100 µM | SR 38 µM | RPMI-8226 > 100 µM | SF-539 > 100 µM | HL-60 62.8 µM | SNB-78 > 100 µM | M14 > 100 µM | NCI-H23 > 100 µM | HCT-116 > 100 µM | SK-MEL-28 > 100 µM | K562 > 100 µM | TK-10 > 100 µM | SK-MEL-5 > 100 µM

O=C1C[C@@H]2[C@@H](CCC23CCCC3)N1
inactive: OVCAR-8 > 100 µM | A549 > 100 µM | ACHN > 100 µM | KM12 > 100 µM | DMS-273 > 100 µM | RPMI-8226 > 100 µM | SF-539 > 100 µM | HL-60 > 100 µM | SNB-78 > 100 µM | M14 > 100 µM | NCI-H23 > 100 µM | HCT-116 > 100 µM | SK-MEL-28 > 100 µM | K562 > 100 µM | TK-10 > 100 µM | SK-MEL-5 > 100 µM

C[C@]12CCC3[C@@H](CC[C@@H]4c5nonc5CC[C@]34C)C1C/C(=N/O)C2=O (stereo not given in full)
inactive: OVCAR-8 > 100 µM | A549 > 100 µM | DMS-114 > 100 µM | ACHN 41 µM | KM12 > 100 µM | DMS-273 > 100 µM | RPMI-8226 9.48 µM | SF-539 71 µM | HL-60 2.12 µM | SNB-78 > 100 µM | M14 63.5 µM | NCI-H23 > 100 µM | HCT-116 > 100 µM | SK-MEL-28 27.1 µM | K562 > 100 µM | TK-10 51.1 µM | SK-MEL-5 > 100 µM

O=C1C=CC(=O)c2c1ccc1c3ccccc3n(-c3ccccn3)c21
inactive: OVCAR-8 24.7 µM | A549 > 100 µM | DMS-114 20.6 µM | ACHN 21.2 µM | KM12 > 100 µM | DMS-273 39.4 µM | RPMI-8226 25.6 µM | SF-539 32 µM | HL-60 3.5 µM | SNB-78 > 100 µM | M14 27.5 µM | NCI-H23 36.6 µM | HCT-116 13.2 µM | SK-MEL-28 > 100 µM | K562 4.98 µM | TK-10 16.7 µM

CCOc1ccc2c(c1)[n+]([O-])c(-c1ccc(Br)cc1)c(N)[n+]2[O-]
inactive: OVCAR-8 57.7 µM | A549 59.6 µM | DMS-114 30.4 µM | ACHN 47.2 µM | KM12 85.5 µM | DMS-273 39.4 µM | RPMI-8226 52.4 µM | SF-539 34.4 µM | HL-60 31.3 µM | SNB-78 > 100 µM | M14 49 µM | NCI-H23 22.8 µM | SK-MEL-28 30.9 µM | K562 75.5 µM | TK-10 > 100 µM | SK-MEL-5 20.8 µM

O=C(N/C(=C/c1cccc([N+](=O)[O-])c1)c1nc2cc(Cl)ccc2[nH]1)c1ccccc1
inactive: OVCAR-8 7.5 µM | A549 14.2 µM | DMS-114 8.51 µM | ACHN 11.3 µM | KM12 5.41 µM | SR 3.61 µM | RPMI-8226 2.71 µM | SF-539 3.51 µM | HL-60 1.99 µM | SNB-78 39.9 µM | M14 20.7 µM | NCI-H23 11.4 µM | HCT-116 8.95 µM | SK-MEL-28 22.6 µM | K562 6.21 µM | TK-10 3.67 µM | SK-MEL-5 2.82 µM

CCCCCCN(CCCCCC)C1=CC(=O)C(=O)c2ccccc21
inactive: OVCAR-8 16.1 µM | A549 17.1 µM | ACHN 17 µM | KM12 17.6 µM | DMS-273 19.8 µM | SR 15.8 µM | RPMI-8226 16.7 µM | SF-539 17.2 µM | HL-60 10.1 µM | SNB-78 23 µM | M14 18.3 µM | NCI-H23 11.5 µM | HCT-116 17.5 µM | SK-MEL-28 17.6 µM | K562 17.1 µM | TK-10 21.7 µM | SK-MEL-5 17.2 µM

C[C@]12Cc3conc3C(O)=C1CC[C@@H]1C2CC[C@@]2(C)C1CC[C@]2(C)O (stereo not given in full)
inactive: OVCAR-8 23.4 µM | A549 28.1 µM | DMS-114 16.4 µM | ACHN 26.5 µM | KM12 13.7 µM | DMS-273 9.04 µM | RPMI-8226 2.87 µM | SF-539 21.8 µM | HL-60 2.09 µM | SNB-78 22.4 µM | M14 16 µM | NCI-H23 19.5 µM | HCT-116 16.3 µM | SK-MEL-28 19.9 µM | K562 3.97 µM | TK-10 24 µM | SK-MEL-5 13.6 µM

COC(=O)CCC(=O)CC(=O)C(=O)Nc1ccc(F)cc1
inactive: OVCAR-8 > 100 µM | A549 > 100 µM | DMS-114 > 100 µM | ACHN > 100 µM | KM12 > 100 µM | DMS-273 > 100 µM | RPMI-8226 > 100 µM | SF-539 > 100 µM | SNB-78 > 100 µM | M14 > 100 µM | NCI-H23 > 100 µM | HCT-116 > 100 µM | SK-MEL-28 > 100 µM | K562 > 100 µM | TK-10 > 100 µM | SK-MEL-5 > 100 µM

C[C@]12CCC3[C@@H](CC[C@@H]4c5nonc5CC[C@]34C)C1CCC2=O (stereo not given in full)
inactive: OVCAR-8 31.7 µM | A549 27.8 µM | DMS-114 20.6 µM | ACHN 24.5 µM | KM12 20.7 µM | DMS-273 19.5 µM | RPMI-8226 17 µM | SF-539 20.4 µM | HL-60 15.7 µM | SNB-78 23.2 µM | M14 18.3 µM | NCI-H23 24.5 µM | HCT-116 17 µM | SK-MEL-28 24.7 µM | K562 29.4 µM | TK-10 29 µM | SK-MEL-5 16.9 µM

O=S1(=O)NN=C(NCc2ccc(Cl)cc2)c2ccccc21
inactive: OVCAR-8 > 100 µM | A549 > 100 µM | DMS-114 > 100 µM | ACHN > 100 µM | KM12 > 100 µM | DMS-273 > 100 µM | RPMI-8226 30.6 µM | SF-539 > 100 µM | HL-60 > 100 µM | SNB-78 > 100 µM | M14 74 µM | HCT-116 > 100 µM | K562 38 µM | SK-MEL-5 > 100 µM

COC(=O)C1=Cc2cn(S(=O)(=O)c3ccc(C)cc3)c3cccc(c23)C(C=C(C)C)N1C(C)=O (stereo not given)
inactive: OVCAR-8 84.9 µM | A549 13.6 µM | DMS-114 11.5 µM | ACHN 18.8 µM | KM12 > 100 µM | DMS-273 6.01 µM | SR 12.4 µM | SF-539 > 100 µM | HL-60 5.56 µM | SNB-78 24.5 µM | M14 30.2 µM | NCI-H23 36.9 µM | HCT-116 11.1 µM | SK-MEL-28 > 10 µM | K562 8 µM | TK-10 38.9 µM | SK-MEL-5 10.5 µM

C=C1CC2CC[C@@]34C[C@@H]5O[C@@H]6C(O[C@H]7CC[C@H](CC(=O)OC8[C@@H](C)C9OC%10C[C@]%11(C[C@@H]%12O[C@@]%13(C[C@@H](C)[C@@H]%12O%11)C[C@H](C)[C@@H]%11OC%12CC(C(O)CO)OC%12C[C@@H]%11O%13)OC%10CC9O[C@H]8C[C@H]8O[C@@H](CC[C@@H]1O2)C[C@@H](C)C8=C)O[C@@H]7[C@@H]6O3)C5O4 (stereo not given in full)
active: OVCAR-8 0.00249 µM | A549 0.00168 µM | ACHN 0.0038 µM | KM12 0.000494 µM | DMS-273 0.000499 µM | SR 0.000718 µM | NCI/ADR-RES 0.00471 µM | RPMI-8226 0.00185 µM | SF-539 0.000933 µM | HL-60 0.000321 µM | SNB-78 0.00178 µM | M14 0.00108 µM | NCI-H23 0.00104 µM | HCT-116 0.000582 µM | SK-MEL-28 0.0014 µM | K562 0.000755 µM | TK-10 0.00863 µM | SK-MEL-5 0.000308 µM

O=C1c2ccccc2C(=O)c2c(O)c(O)cc(O)c21 [PURPURIN]
inactive: OVCAR-8 55.5 µM | A549 44.7 µM | ACHN 27.4 µM | KM12 41.5 µM | DMS-273 38.1 µM | RPMI-8226 25.8 µM | SF-539 17.8 µM | HL-60 24 µM | SNB-78 38.2 µM | M14 41.3 µM | NCI-H23 29.9 µM | HCT-116 24.5 µM | SK-MEL-28 38.6 µM | K562 36.5 µM | TK-10 81.3 µM | SK-MEL-5 37.9 µM
